The test system of one series is IFNα pSTAT4 (JAK1/TYK2). In words: IFNα pSTAT4 (JAK1/TYK2) cellular assay, AlphaLISA in PBMCs. In kind it is cell-based. Conditions: PBMC, IFNα 4 ng/mL. The procedure: The AlphaLISA assay (based on Alpha Technology from PerkinElmer) was performed by first plating freshly thawed PBMCs (Biological Specialty Corporation) in 384-well plates at 100,000 cells per 6 μL per well in DMEM (Dulbecco's Modified Eagle Medium) containing 10% FBS (fetal bovine serum) and 1,000 I.U./mL penicillin and 1,000 μg/mL streptomycin. The cells were then treated with 2 μL/well of compounds diluted in DMSO at half-log titrated concentrations, with a highest test concentration of 10 μM and 0.5% final DMSO concentration, for thirty minutes at 37° C. Next, the cells were stimulated with 2 μL/well of IFNα (PBL Assay Science Cat. No. 11101-2) at 4 ng/mL for thirty minutes at 37° C. The cellular reactions were terminated by the addition of 2 μL/well of lysis buffer (PerkinElmer Cat. No. ALSU-PST4-A10K) followed by an incubation of five minutes at room temperature. 4 μL/well of acceptor mix (PerkinElmer Cat. No. ALSU-PST4-A10K) was added to the cells and incubated in the dark for one hour at room temperature. Then, 4 μL/well of donor mix (PerkinElmer Cat. No. ALSU-PST4-A10K) was added to the cells and incubated in the dark overnight at room temperature. Finally, the plates were read on a PerkinElmer EnVision for detection of the time-resolved fluorescence signal. The percentage of IFNα-dependent pSTAT4 inhibition was determined at the compound test concentrations; and for each compound, a dose curve was generated and the IC50 was calculated. Compound IC50 was calculated by nonlinear regression, sigmoidal dose response analysis of the half-log dilution titration curve of the compound concentration vs. Alpha signal. The term “Alpha” is defined in the immediately preceding cellular assay description.

The nature of another series: physchem. To be noted: pH 6.5, fassif, thermodynamic from solid.
In the next series the test system is MDCK-MDR1 cell line. Put plainly: MDCK-MDR1 permeability assay. In kind it is in vitro ADME. To be noted: for MDCK-MDR1 Papp(A-B): without elacridar; for MDCK-MDR1 Papp(B-A): basolateral to apical; for Papp(B-A)/Papp(A-B) efflux ratio: MDCK-MDR1, @ 5 μM.
The target in a further series is JAK2-JH1JH2 (Homo sapiens (Human), UniProt O60674). Put plainly: Enzymatic inhibition assay (HTMS). Type of series: biochemical. Conditions: 30 μM ATP; read-out: JAK2_I_JH1JH2 IC50. An excerpt:
(§1) JAK1-JH1JH2 (574-1154 with a His-GST Tag and a C-terminal tev (ENLYFQ-G) cleavage site), JAK3-JH1JH2 (512-1124 with a GST Tag and a C-terminal tev (ENLYFQ-G) cleavage site), and Tyk2-JH1JH2 (8H_tev_580-1182-C936A-C1142A with a C-terminal tev (ENLYFQ-G) cleavage site) were purified internally. […] LC/MS grade water and acetonitrile (ACN), were purchased from HoneyWell, Burdick & Jackson (Muskegon, Mich., USA). Dimethylsulfoxide 99.8% (DMSO) and trifluoroacetic acid 99.5% (TFA) were purchased from EMD Chemical (Gibbstown, N.J., USA). Adenosine triphosphate (ATP), 4-morpholinepropanesulfonic acid (MOPS), magnesium chloride (MgCl2), ethylenediaminetetraacetic acid (EDTA), dithiothreitol (DTT), formic acid>95% (FA) and Tween-20 were purchased from Sigma (St Louis, Mo., USA). 384-well polypropylene plates, Cat#781280 were purchased from Greiner (Monroe, N.C.), RapidFire™ cartridge A C4 Column (Agilent Technologies, Santa Clara, Calif.).
(§2) The HTMS experiments were performed in positive ionization mode on a RapidFire 300 instrument (Agilent Technologies, Santa Clara, Calif.), coupled with an ABSiex QTrap 4000 system with an Electrospray Ionization source (RF-MS) (Concord, ON, Canada). […] The entire system was operated using the RapidFire software interfaced with Analyst software for the mass spectrometer.
(§3) 11-point dosing series were made for each compound by serially diluting 1:3 or 1:4 in DMSO, with point 12 being a DMSO control. From the serial dilution plates, sample was transferred to a 384 wells assay plate (#781280, Greiner, Monroe, N.C.) using Labcyte Echo (Sunnyvale, Calif.), or Biosero ATS (San Diego, Calif.). The compounds were tested in duplicate. Column 12 was used for positive controls, and column 24 contained negative controls with no enzyme added. A compound from our internal collection, with inhibitory activity for JAK isoforms, was used as a reference compound. The final concentration of DMSO was ≤0.25% in a 20 μL reaction. The enzyme reaction was initiated by the addition of 10 μL of enzyme and ATP mixture to 10 μL of substrate solution prepared in reaction buffer (50 mM MOPS pH 7.5, 10 mM MgCl2, 1 mM EDTA, 2 mM DTT, 0.002% Tween-20). The Tyk2 enzyme was pre-incubated with 2 mM ATP for 30 min prior to the reaction initiation. Immediately after the addition of the enzyme to the reaction mixture, the plate was centrifuged at 1000 rpm for 1 minute and incubated at 25° C. for 45 minutes for JAK3 and 90 minutes for JAK1, JAK2 and Tyk2. The reaction was quenched by the addition of 20 μL of 0.5% TFA containing 0.15 μM of internal standard peptide using Multidrop Combi reagent dispenser (Thermo Scientific, Waltham, Mass.). […] After the quench, the assay plate was centrifuged at 3000 rpm for 3 minutes and sealed with pierceable aluminum foil (Cat#06644-001, Agilent) using a PlateLoc (Agilent Technologies, Santa Clara, Calif.). The plates then were transferred on to the RapidFire for the MS analysis. Compound inhibition was assessed by a decrease of the phosphorylated product levels in sample wells compared to the non-inhibited enzyme reaction.
(§4) The sample analysis on the RapidFire was performed using a mobile phase A1 consisting of Water/TFA/FA (100:0.01:0.1, v/v/v), a mobile phase B1 consisting of ACN/Water/TFA/FA (80:20:0.01:0.1, v/v/v). […] The samples were aspirated directly from the 384-well assay plate and delivered onto RF-MS microscale solid-phase C4 extraction cartridge (Type A). The undesired component such as salt, cofactor, detergent and large protein were washed out and the retained analytes (substrate, product and IS) were coeluted directly onto the AB Siex Qtrap 4000 system.

In a further series the target is JAK1-JH1JH2 (Homo sapiens (Human), UniProt P23458). In words: Enzymatic inhibition assay (HTMS). Conditions: 12.5 μM ATP; read-out: JAK1_JH1JH2 IC50. Type of series: biochemical.
Source text: as §1, §2, §3, §4

The target in another series is Tyk2-JH1JH2 (Homo sapiens (Human), UniProt P29597, C1142A/C936A). Put plainly: Enzymatic inhibition assay (HTMS). Conditions: 50 μM ATP; read-out: Tyk2_I_JH1JH2 IC50. Type of series: biochemical.
Source text: as §1, §2, §3, §4

In the next series the target is JAK3-JH1JH2 (Homo sapiens (Human), UniProt P52333). In words: Enzymatic inhibition assay (HTMS). In kind it is biochemical. Conditions: 150 μM ATP; read-out: JAK3_I_JH1JH2 IC50.
Source text: as §1, §2, §3, §4

The conditions of series [1]: pH 6.5.

Converted amounts (≈) assume the structure as drawn.

Chain of Tyk2-JH1JH2 (P29597 580-1182 C936A/C1142A): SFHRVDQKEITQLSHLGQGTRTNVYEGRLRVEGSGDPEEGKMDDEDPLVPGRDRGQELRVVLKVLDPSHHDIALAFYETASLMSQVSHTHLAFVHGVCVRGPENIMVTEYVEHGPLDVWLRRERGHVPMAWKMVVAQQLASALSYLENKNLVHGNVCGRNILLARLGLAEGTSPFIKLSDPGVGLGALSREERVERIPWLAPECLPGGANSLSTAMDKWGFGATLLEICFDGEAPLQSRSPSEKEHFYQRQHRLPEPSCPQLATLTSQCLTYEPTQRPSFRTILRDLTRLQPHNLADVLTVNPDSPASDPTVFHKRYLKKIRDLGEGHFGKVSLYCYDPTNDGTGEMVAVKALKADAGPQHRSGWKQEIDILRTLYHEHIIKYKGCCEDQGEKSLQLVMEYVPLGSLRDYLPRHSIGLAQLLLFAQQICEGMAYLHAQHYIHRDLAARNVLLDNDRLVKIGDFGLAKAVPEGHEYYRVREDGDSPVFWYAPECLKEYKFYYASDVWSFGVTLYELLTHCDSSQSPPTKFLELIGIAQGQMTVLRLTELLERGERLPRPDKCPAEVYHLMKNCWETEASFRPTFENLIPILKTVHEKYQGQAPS
Chain of JAK1-JH1JH2 (P23458 574-1154): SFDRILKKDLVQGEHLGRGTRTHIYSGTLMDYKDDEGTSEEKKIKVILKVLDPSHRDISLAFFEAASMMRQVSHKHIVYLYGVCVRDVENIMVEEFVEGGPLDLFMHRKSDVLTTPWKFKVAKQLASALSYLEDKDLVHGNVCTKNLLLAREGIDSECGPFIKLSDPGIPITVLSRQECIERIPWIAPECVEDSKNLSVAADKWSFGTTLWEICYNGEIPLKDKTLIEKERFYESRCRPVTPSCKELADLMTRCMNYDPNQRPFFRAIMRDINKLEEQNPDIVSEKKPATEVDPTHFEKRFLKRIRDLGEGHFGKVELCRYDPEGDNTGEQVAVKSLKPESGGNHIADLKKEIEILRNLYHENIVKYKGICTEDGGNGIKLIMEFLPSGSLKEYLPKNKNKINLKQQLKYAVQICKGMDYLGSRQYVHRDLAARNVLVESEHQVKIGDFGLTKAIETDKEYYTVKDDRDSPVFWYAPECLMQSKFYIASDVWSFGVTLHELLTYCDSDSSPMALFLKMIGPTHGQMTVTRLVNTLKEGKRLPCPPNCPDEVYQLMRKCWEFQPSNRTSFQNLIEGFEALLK
Chain of JAK2-JH1JH2 (O60674 532-1132): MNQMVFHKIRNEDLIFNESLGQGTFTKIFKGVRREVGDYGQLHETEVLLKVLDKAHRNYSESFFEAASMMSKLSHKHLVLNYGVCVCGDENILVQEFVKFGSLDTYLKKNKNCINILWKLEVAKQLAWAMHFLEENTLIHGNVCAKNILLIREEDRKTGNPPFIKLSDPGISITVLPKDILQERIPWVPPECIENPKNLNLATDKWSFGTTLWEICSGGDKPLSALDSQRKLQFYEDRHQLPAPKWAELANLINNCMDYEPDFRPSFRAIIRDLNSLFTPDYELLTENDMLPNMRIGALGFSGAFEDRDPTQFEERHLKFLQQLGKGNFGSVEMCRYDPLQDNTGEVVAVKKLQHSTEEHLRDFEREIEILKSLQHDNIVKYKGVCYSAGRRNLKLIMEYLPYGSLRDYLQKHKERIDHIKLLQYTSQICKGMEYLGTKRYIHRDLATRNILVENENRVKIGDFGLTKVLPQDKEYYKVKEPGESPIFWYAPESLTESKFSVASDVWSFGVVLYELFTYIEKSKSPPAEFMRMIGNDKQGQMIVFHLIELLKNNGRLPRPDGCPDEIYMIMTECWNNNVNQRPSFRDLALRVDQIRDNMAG
Chain of JAK3-JH1JH2 (P52333 512-1124): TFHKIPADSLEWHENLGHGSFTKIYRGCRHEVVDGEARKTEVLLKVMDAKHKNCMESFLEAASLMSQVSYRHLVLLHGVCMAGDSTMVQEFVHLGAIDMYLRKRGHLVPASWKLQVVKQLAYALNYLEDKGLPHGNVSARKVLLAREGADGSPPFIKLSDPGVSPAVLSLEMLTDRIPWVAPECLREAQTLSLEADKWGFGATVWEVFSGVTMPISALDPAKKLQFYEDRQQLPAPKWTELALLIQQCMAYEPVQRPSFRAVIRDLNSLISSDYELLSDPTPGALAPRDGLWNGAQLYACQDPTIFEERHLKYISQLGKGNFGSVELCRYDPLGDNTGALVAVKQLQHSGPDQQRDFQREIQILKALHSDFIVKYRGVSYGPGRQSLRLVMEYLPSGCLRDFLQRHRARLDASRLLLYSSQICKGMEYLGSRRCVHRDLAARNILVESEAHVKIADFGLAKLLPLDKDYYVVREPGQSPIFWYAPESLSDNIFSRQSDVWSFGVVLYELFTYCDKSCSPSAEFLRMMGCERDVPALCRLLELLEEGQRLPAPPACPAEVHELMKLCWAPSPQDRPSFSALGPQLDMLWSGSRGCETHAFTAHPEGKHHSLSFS

Broadly, the IC50 is the concentration that inhibits the measured activity by half. By solubility is commonly meant the concentration that dissolves in the medium under given conditions. On to `CC(C)(O)CNC(=O)Cc1nc2cnc3[nH]ccc3c2n1[C@H]1CC[C@H](CC#N)CC1` [Ex. 1, 2-(1-((1r,4r)-4-(Cyanomethyl)cyclohexyl)-1,6-dihydroimidazo[4,5-d]pyrrolo[2,3-b]pyridin-2-yl)-N-(2-hydroxy-2-methylpropyl)acetamide], for which the IC50 in the series with IFNα pSTAT4 (JAK1/TYK2) is 59.5 nM; on JAK2-JH1JH2 it was 8.6 nM; on JAK1-JH1JH2 it was 0.4 nM; at Tyk2-JH1JH2 it was 7.4 nM; at JAK3-JH1JH2, 92.2 nM. This compound also yielded a solubility in “physchem” of 387 µM (≈ 158 µg/mL). Further, in the series with MDCK-MDR1 cell line (@ 5 μM, apical to basolateral), the “MDCK-MDR1 Papp(A-B)” value is given as 0.4 10^−6 cm/sec. In the series with MDCK-MDR1 cell line (@ 5 μM), the “MDCK-MDR1 Papp(B-A)” value was 1.1 10^−6 cm/sec. The “Papp(B-A)/Papp(A-B) efflux ratio” value with MDCK-MDR1 cell line was found to be 3.3.

Regarding `N#CC[C@H]1CC[C@H](n2c(-c3c[nH]cn3)nc3cnc4[nH]ccc4c32)CC1` [Ex. 2, 2-((1r,4r)-4-(2-(1H-Imidazol-4-yl)imidazo[4,5-d]pyrrolo[2,3-b]pyridin-1(6H)-yl)cyclohexyl)acetonitrile], the IC50 came to 20.8 nM in the series on IFNα pSTAT4 (JAK1/TYK2) and 1.5 nM on Tyk2-JH1JH2. Further, in series [1], the SIF solubility is more than 400 µM.

Regarding `N#CC[C@H]1CC[C@H](n2c(CC(=O)NCC3CC3)nc3cnc4[nH]ccc4c32)CC1` [Ex. 3, 2-(1-((1r,4r)-4-(Cyanomethyl)cyclohexyl)-1,6-dihydroimidazo[4,5-d]pyrrolo[2,3-b]pyridin-2-yl)-N-(cyclopropylmethyl)acetamide], the IC50 in the series with IFNα pSTAT4 (JAK1/TYK2) came to 10.1 nM; on JAK2-JH1JH2 it was 6.2 nM; at JAK1-JH1JH2 it was 0.2 nM; at Tyk2-JH1JH2, 11.6 nM; on JAK3-JH1JH2 it was 82.8 nM. Moreover, the “MDCK-MDR1 Papp(A-B)” value in the series with MDCK-MDR1 cell line (@ 5 μM, apical to basolateral) is reported as < 0.5 10^−6 cm/sec. Moreover, in the series with MDCK-MDR1 cell line (@ 5 μM), the “MDCK-MDR1 Papp(B-A)” value is 16 10^−6 cm/sec. Also, the “Papp(B-A)/Papp(A-B) efflux ratio” value with MDCK-MDR1 cell line is more than 33. In series [1], this compound yielded an SIF solubility of more than 400 µM.

Consider `N#CCCNC(=O)Cc1nc2cnc3[nH]ccc3c2n1[C@H]1CC[C@H](CC#N)CC1` [Ex. 4, N-(2-Cyanoethyl)-2-(1-((1r,4r)-4-(cyanomethyl)cyclohexyl)-1,6-dihydroimidazo[4,5-d]pyrrolo[2,3-b]pyridin-2-yl)acetamide], for which the IC50 turned out to be 64.7 nM with IFNα pSTAT4 (JAK1/TYK2); 6.6 nM at JAK2-JH1JH2; 0.1 nM on JAK1-JH1JH2; 2.2 nM at Tyk2-JH1JH2; 96.2 nM at JAK3-JH1JH2. Besides, in series [1], the SIF solubility is more than 400 µM.

In the case of `N#CC[C@H]1CC[C@H](n2c(CC(=O)NC3CCOCC3)nc3cnc4[nH]ccc4c32)CC1` [Ex. 5, 2-(1-((1r,4r)-4-(Cyanomethyl)cyclohexyl)-1,6-dihydroimidazo[4,5-d]pyrrolo[2,3-b]pyridin-2-yl)-N-(tetrahydro-2H-pyran-4-yl)acetamide], the IC50 with IFNα pSTAT4 (JAK1/TYK2) was found to be 38.1 nM; at JAK2-JH1JH2 it was 2.1 nM; on JAK1-JH1JH2, 0.3 nM; on Tyk2-JH1JH2 it was 4.1 nM; on JAK3-JH1JH2, 23.1 nM. Further, the solubility in the series “physchem” was 198 µM (≈ 83.3 µg/mL). For the same compound, the “MDCK-MDR1 P^eapp(A-B)” value in the series on MDCK-MDR1 cell line (@ 5 μM, apical to basolateral, with P-gp inhibitor elacridar (2 μM)) is 0.5 10^−6 cm/sec. Further, the “MDCK-MDR1 Papp(A-B)” value in the series with MDCK-MDR1 cell line (@ 5 μM, apical to basolateral) is reported as < 0.5 10^−6 cm/sec. Besides, in the series with MDCK-MDR1 cell line (@ 5 μM), the “MDCK-MDR1 Papp(B-A)” value is given as 2.1 10^−6 cm/sec. Moreover, the “Papp(B-A)/Papp(A-B) efflux ratio” value in the series with MDCK-MDR1 cell line is listed as more than 4.5.

Take `CC(C)(C#N)CNC(=O)Cc1nc2cnc3[nH]ccc3c2n1[C@H]1CC[C@H](CC#N)CC1` [Ex. 7, N-(2-Cyano-2-methylpropyl)-2-(1-((1r,4r)-4-(cyanomethyl)cyclohexyl)-1,6-dihydroimidazo[4,5-d]pyrrolo[2,3-b]pyridin-2-yl)acetamide]: the IC50 with IFNα pSTAT4 (JAK1/TYK2) was 38.5 nM; at JAK2-JH1JH2, 5.6 nM; on JAK1-JH1JH2 it was 0.2 nM; at Tyk2-JH1JH2, 4.8 nM; at JAK3-JH1JH2 it was 98.4 nM. In the series “physchem”, this compound registered a solubility of 81 µM (≈ 33.8 µg/mL).

Regarding `N#CC[C@H]1CC[C@H](n2c(CC(=O)NCC3(O)CCC3)nc3cnc4[nH]ccc4c32)CC1` [Ex. 8, 2-(1-((1r,4r)-4-(Cyanomethyl)cyclohexyl)-1,6-dihydroimidazo[4,5-d]pyrrolo[2,3-b]pyridin-2-yl)-N-((1-hydroxycyclobutyl)methyl)acetamide], the IC50 came to 42.8 nM in the series on IFNα pSTAT4 (JAK1/TYK2); 7 nM at JAK2-JH1JH2; 0.4 nM at JAK1-JH1JH2; 6.6 nM on Tyk2-JH1JH2; 75.6 nM at JAK3-JH1JH2. This compound yielded an SIF solubility in series [1] of more than 400 µM.

For the compound `N#CCC12CCC(NC(=O)Cc3nc4cnc5[nH]ccc5c4n3[C@H]3CC[C@H](CC#N)CC3)(CC1)C2` [Ex. 10, N-(4-(Cyanomethyl)bicyclo[2.2.1]heptan-1-yl)-2-(1-((1r, 4r)-4-(cyanomethyl)cyclohexyl)-1,6-dihydroimidazo[4,5-d]pyrrolo[2,3-b]pyridin-2-yl)acetamide], the IC50 in the series with IFNα pSTAT4 (JAK1/TYK2) was determined as 40.4 nM; at JAK2-JH1JH2 it was 6.5 nM; at JAK1-JH1JH2 it was 1 nM; at Tyk2-JH1JH2, 9 nM; on JAK3-JH1JH2 it was 87.5 nM. The same compound registered a solubility in the series “physchem” of 359 µM (≈ 169 µg/mL).

Turning to `N#CC[C@H]1CC[C@H](n2c(CC(=O)NCC3(O)CC3)nc3cnc4[nH]ccc4c32)CC1` [Ex. 12, 2-(1-((1r,4r)-4-(Cyanomethyl)cyclohexyl)-1,6-dihydroimidazo[4,5-d]pyrrolo[2,3-b]pyridin-2-yl)-N-((1-hydroxycyclopropyl)methyl)acetamide], the IC50 in the series with IFNα pSTAT4 (JAK1/TYK2) came out at 81.4 nM; on JAK2-JH1JH2 it was 9.4 nM; on JAK1-JH1JH2, 0.9 nM; on Tyk2-JH1JH2 it was 8.7 nM; on JAK3-JH1JH2, 101 nM. Further, the SIF solubility in series [1] was more than 400 µM.

The record behind these values is patent US10294226B2, “Small molecule inhibitors of the JAK family of kinases” (Janssen Pharmaceutica NV, priority 2016, dated 2019).
